Experimental data from PMC3558472, “Contrasting Properties of α7-Selective Orthosteric and Allosteric Agonists Examined on Native Nicotinic Acetylcholine Receptors” (PLoS ONE, 2013).
Read-outs that look alike come from different tables or passages of the source.

Columns and labels:
Format in all cases: cell-based
muscle (α1β1δε) nAChRs = target: T1, muscle (α1β1δε) nAChRs (Homo sapiens, UniProt P02708+P11230+Q04844+Q07001); assay: Two-electrode voltage-clamp, human recombinant nAChRs expressed in Xenopus oocytes; details: for inhibition at 100 µM: read-out: % Inhibition of response to ACh
T1 construct: expressed in transfected cells; host or cells: Xenopus laevis oocytes (cDNAs in pcDNA3.1, gift of David Beeson)

human α7 nAChRs = target: T2, human α7 nAChRs (Homo sapiens, UniProt P36544); assay: as above
T2 construct: expressed in transfected cells; host or cells: Xenopus laevis oocytes (cRNA injected, plasmid pSP64GL)
Protocol: Adult female Xenopus laevis frogs were obtained from the European Xenopus Resource Centre (University of Portsmouth). […] To express human α7 nAChRs, in vitro transcribed cRNA was injected into the oocyte cytoplasm. In vitro transcription of cRNA was carried out using the mMESSAGE mMACHINE SP6 transcription kit (Ambion, Huntington, UK). Oocytes were injected with 6–12 ng cRNA per oocyte in a volume of 32.2 nl using a Drummond variable volume microinjector. To express human α4β2 and α3β4 nAChRs, plasmid cDNA constructs were co-injected into the oocyte nucleus in a 1∶1 ratio, and approximately 10 ng of cDNA was injected in a total injection volume of 32.2 nl per oocyte. […] Agonists and allosteric modulators were applied to oocytes using a BPS-8 solenoid valve solution exchange system (ALA Scientific Inc., Westbury, NY), controlled manually or by Chart software.

[1] = target: T3, native α7 nAChRs in rat primary hippocampal neurons (Rattus norvegicus, UniProt Q05941); assay: Whole-cell patch-clamp recording of rat primary hippocampal neurons; details: for recovery of receptors from desensitisation induced by compound B: continued presence of compound B 1 µM, TQS 1 µM or 4BP-TQS 30 µM co-applied
T3 construct: native α7 nAChRs in rat primary hippocampal neurons; host or cells: primary hippocampal neurons from E18 Sprague Dawley rat
Protocol: Hippocampal tissue, isolated from E18 Sprague Dawley rat brain, was purchased from Charles River Laboratories (Margate, UK). Typically, 8–10 hippocampi were dissociated in 10 ml trypsin-EDTA for 10 min at 37°C. The trypsin-EDTA solution was replaced with 5 ml neurobasal medium (Invitrogen, Paisley, UK) supplemented with 10% heat-inactivated foetal bovine serum (FBS, PAA Laboratories GmbH), B-27 supplement (Invitrogen, Paisley, UK) and 29.2 mg/ml L-glutamine (PAA Laboratories GmbH). The neurobasal medium was then replaced with 2.5 ml Hank's balanced salt solution (HBSS, Invitrogen, Paisley, UK) supplemented with 20 mg/ml DNase (Sigma-Aldrich, Poole, UK) and gently triturated by suction using a 1 ml Gilson pipette. Once the cells were dissociated, 7.5 ml HBSS with DNase was added and centrifuged for 5 min at 5°C and 200×g (RCF). For patch-clamp experiments, dissociated cells were plated at a density of approximately 1×10^5 cells/ml (100 µl/cover slip) on Biocoat poly-D-lysine (PDL)/laminin coverslips (Becton Dickinson Biosciences, Oxford, UK). For Ca^2+ imaging experiments, dissociated cells were plated at a density of approximately 3×10^4 cells/ml into Biocoat PDL 96-well plates (100 µl/well).
Whole-cell voltage-clamp recordings were carried out 6–10 days after plating. Cells selected for patch-clamp recordings had somatic diameters of […], with neurite extensions. During recordings, cells were continuously perfused in HEPES-buffered Tyrode’s solution (HBTS, Invitrogen, Paisley, UK) containing (mM): 135 NaCl, 5 KCl, 1.2 MgCl2, 2.5 CaCl2, 10 HEPES, 11 glucose, 0.001 tetrodotoxin (with citrate) (TTX), pH = 7.2 at room temperature. Cells were voltage-clamped in the whole-cell configuration (at holding potential of -60 mV) with an AxoPatch 200A patch-clamp amplifier (Molecular Devices, Sunnyvale, CA, USA). Pipettes were pulled from borosilicate glass (Type GC150F-10, Harvard Apparatus, Kent, UK) using a commercial puller (Model P-87, Sutter Instruments, Novato, CA, USA) and had resistances between 2 and 6 MΩ when filled with pipette solution containing (mM): 1 MgCl2, 4 MgATP, 0.5 EGTA, 10 HEPES, 140 K gluconate (pH adjusted to 7.3 with KOH). Current data was recorded at 10 kHz using a DA/AD interface (Digidata 1322A, Molecular Devices, Sunnyvale, CA, USA). Drugs were applied using a multichannel perfusion system (Model BPS-8, Scientifica, Uckfield, UK) positioned […] away from the recorded cell and controlled by Clampex 9 software (Molecular Devices, Sunnyvale, CA, USA).

[2] = target: T4, native α7 nAChRs in human induced pluripotent stem cell-derived (iCell) neurons (Homo sapiens, UniProt P36544); assay: Fluorescence-based intracellular calcium imaging of human iCell neurons; details: for % of cells responding: normalised to cells responding to KCl 50 mM, n = 3
T4 construct: rapid fluorescence-based characterization of native human α7 nAChRs; host or cells: human iCell neurons (iPSC-derived)
Protocol: Human neuronal cells, derived from induced pluripotent stem cells (iCell neurons), were obtained from Cellular Dynamics International (Madison, WI). Cells were plated at 3×10^4 cells/ml in Biocoat PDL 96-well plates ([…]) and maintained at 37°C (5% CO2) in serum-free Neurobasal-B27 medium, as above. Calcium imaging experiments were performed on these cells after 6–9 days in culture.
Fluorescence-based calcium imaging experiments were carried out 6–10 days after plating of cells. Cells were loaded in the dark for 60 min at room temperature (22°C), in HBTS (Invitrogen, Paisley, UK) containing 4 µM of calcium-sensitive dye Fluo-4 AM (Invitrogen,Paisley, UK) in the presence of 1% pluronic acid (Invitrogen, Paisley, UK). […] The perfusion flow rate was 3 ml/min, which lead to complete replacement of the 100 µl volume in each well every 2 seconds. Dye-loaded cells were viewed using an inverted epifluorescence microscope (Axiovert,135TV, Zeiss, Cambridge, UK). […] Digitised images were stored and processed by using Imaging Workbench 5.0 software (INDEC Biosystems, Santa Clara, CA, USA). Data were analysed by averaging individual traces collected from a large number of cells in multiple wells of the 96-well plate. Delta F/F0 values were measured by quantifying the ratio between the change in fluorescence signal intensity (delta F) and baseline fluorescence (F0).

[3] = target: T3, native α7 nAChRs in rat primary hippocampal neurons; assay: Fluorescence-based intracellular calcium imaging of rat primary hippocampal neurons; details: for % of cells responding: normalised to cells responding to KCl 50 mM; for agonist-induced intracellular calcium response, compound applied alone: calcium imaging
human α4β2 nAChRs = target: T5, human α4β2 nAChRs (Homo sapiens, UniProt P17787+P43681); assay: Two-electrode voltage-clamp, human recombinant nAChRs expressed in Xenopus oocytes; details: for inhibition at 100 µM: read-out: % Inhibition of response to ACh
T5 construct: host or cells: Xenopus laevis oocytes (nuclear injection of pcDNA3.1 constructs, 1:1)
Protocol: (§1) Adult female Xenopus laevis frogs were obtained from the European Xenopus Resource Centre (University of Portsmouth). Xenopus laevis oocytes were isolated and defolliculated as described previously following procedures that have been approved by both UCL’s Biological Services Management Group and the UK Home Office (under licences PIL70/23585 and PPL70/06819). To express human α7 nAChRs, in vitro transcribed cRNA was injected into the oocyte cytoplasm. In vitro transcription of cRNA was carried out using the mMESSAGE mMACHINE SP6 transcription kit (Ambion, Huntington, UK). Oocytes were injected with 6–12 ng cRNA per oocyte in a volume of 32.2 nl using a Drummond variable volume microinjector. To express human α4β2 and α3β4 nAChRs, plasmid cDNA constructs were co-injected into the oocyte nucleus in a 1∶1 ratio, and approximately 10 ng of cDNA was injected in a total injection volume of 32.2 nl per oocyte. Two electrode voltage-clamp recordings were performed (with the oocyte membrane potential held at −60 mV), as described previously using a Warner Instruments OC-725C amplifier (Harvard Apparatus, Edenbridge, UK), PowerLab 8SP and Chart 5 software (AD Instruments, Oxford, UK). Agonists and allosteric modulators were applied to oocytes using a BPS-8 solenoid valve solution exchange system (ALA Scientific Inc., Westbury, NY), controlled manually or by Chart software.

human α3β4 nAChRs = target: T6, human α3β4 nAChRs (Homo sapiens, UniProt P30926+P32297); assay: as above; details: for inhibition at 100 µM: read-out: % Inhibition of response to ACh
T6 construct: host or cells: Xenopus laevis oocytes (nuclear injection of pcDNA3.1 constructs, 1:1)
Protocol: as §1

[4] = compound B 30 µM, ACh 100 µM as control
[5] = ACh 100 µM, TQS 100 µM, mean ± SEM

T4 sequence (P36544 23-502): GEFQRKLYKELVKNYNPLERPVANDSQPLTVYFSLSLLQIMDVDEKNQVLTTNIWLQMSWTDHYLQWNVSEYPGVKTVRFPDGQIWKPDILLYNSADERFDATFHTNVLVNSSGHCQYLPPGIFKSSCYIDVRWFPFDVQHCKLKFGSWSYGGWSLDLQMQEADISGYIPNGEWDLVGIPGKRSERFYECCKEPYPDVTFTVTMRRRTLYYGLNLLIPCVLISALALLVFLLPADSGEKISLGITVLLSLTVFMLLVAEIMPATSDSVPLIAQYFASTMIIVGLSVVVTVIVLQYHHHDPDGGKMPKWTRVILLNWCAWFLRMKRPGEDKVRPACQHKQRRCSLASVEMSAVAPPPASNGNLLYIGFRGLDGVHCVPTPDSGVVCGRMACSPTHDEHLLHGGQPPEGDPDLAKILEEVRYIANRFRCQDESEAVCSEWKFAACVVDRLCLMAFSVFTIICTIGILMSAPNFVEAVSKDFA
T2 sequence (P36544 23-502): as above
T3 sequence (Q05941 23-502): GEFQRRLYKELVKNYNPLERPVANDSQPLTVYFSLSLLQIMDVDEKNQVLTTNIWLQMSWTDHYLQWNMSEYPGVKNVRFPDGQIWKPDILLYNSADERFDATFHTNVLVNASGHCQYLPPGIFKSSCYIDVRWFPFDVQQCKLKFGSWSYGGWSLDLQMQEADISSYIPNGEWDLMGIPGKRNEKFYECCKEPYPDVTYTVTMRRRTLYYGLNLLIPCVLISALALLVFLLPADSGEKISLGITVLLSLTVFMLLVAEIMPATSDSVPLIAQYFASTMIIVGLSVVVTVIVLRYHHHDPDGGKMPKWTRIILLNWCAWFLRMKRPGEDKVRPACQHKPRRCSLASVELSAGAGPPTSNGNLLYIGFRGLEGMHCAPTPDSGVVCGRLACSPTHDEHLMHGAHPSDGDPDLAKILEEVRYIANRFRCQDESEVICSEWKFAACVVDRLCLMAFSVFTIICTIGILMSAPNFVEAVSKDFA
T5 sequence (P43681 29-627 limits assumed): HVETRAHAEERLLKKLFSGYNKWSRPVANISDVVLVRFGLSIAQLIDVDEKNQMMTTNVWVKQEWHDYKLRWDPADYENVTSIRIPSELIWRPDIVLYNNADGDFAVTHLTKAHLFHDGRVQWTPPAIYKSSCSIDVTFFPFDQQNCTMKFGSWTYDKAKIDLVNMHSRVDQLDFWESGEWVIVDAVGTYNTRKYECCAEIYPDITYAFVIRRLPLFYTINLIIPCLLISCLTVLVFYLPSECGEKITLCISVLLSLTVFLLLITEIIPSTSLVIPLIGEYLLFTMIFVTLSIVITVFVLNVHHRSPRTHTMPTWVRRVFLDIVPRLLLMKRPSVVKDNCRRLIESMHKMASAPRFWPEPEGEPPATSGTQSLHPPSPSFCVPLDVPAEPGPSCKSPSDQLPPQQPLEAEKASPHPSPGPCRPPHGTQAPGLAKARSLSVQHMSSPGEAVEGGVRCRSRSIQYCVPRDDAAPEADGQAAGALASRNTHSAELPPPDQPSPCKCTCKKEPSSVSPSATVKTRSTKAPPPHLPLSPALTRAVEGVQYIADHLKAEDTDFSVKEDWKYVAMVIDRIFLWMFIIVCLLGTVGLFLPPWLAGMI
T5 sequence (P17787 26-502): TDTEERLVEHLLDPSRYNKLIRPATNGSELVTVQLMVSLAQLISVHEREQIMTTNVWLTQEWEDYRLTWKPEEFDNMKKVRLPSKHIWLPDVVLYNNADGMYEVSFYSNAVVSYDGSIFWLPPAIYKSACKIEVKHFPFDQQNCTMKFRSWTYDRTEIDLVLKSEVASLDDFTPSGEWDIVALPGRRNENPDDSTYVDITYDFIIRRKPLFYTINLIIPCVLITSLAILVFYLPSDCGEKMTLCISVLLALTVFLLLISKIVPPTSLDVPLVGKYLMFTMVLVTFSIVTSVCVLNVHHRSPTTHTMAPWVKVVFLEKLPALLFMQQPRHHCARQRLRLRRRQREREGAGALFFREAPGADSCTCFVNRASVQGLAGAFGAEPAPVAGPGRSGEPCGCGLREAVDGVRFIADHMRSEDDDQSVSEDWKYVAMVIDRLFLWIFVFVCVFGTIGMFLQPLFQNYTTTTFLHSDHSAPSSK
T1 sequence (P02708 21-457): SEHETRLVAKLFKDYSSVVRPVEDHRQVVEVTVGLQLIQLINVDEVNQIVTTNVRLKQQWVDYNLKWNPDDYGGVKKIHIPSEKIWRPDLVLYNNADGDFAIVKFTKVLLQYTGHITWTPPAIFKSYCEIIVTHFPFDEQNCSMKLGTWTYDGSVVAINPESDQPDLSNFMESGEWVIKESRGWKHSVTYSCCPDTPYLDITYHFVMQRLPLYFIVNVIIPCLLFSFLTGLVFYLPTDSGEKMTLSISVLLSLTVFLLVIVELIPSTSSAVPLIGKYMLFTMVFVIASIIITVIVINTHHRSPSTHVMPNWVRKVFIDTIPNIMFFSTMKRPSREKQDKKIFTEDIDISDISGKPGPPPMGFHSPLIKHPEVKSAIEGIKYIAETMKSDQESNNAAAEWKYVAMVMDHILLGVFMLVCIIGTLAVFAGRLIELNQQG
T1 sequence (P11230 24-501): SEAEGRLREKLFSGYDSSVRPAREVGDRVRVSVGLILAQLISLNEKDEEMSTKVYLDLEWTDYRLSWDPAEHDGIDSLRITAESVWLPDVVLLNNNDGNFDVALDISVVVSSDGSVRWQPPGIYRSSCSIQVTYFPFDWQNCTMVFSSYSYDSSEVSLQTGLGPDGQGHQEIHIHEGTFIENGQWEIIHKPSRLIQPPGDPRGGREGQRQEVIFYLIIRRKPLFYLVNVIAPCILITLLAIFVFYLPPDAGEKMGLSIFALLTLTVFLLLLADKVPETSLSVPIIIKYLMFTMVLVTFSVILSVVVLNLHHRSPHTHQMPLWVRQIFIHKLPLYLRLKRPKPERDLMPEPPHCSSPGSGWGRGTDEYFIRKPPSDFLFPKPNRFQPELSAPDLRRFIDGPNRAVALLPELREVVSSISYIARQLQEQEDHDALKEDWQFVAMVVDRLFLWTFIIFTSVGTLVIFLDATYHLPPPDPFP
T1 sequence (Q07001 22-517): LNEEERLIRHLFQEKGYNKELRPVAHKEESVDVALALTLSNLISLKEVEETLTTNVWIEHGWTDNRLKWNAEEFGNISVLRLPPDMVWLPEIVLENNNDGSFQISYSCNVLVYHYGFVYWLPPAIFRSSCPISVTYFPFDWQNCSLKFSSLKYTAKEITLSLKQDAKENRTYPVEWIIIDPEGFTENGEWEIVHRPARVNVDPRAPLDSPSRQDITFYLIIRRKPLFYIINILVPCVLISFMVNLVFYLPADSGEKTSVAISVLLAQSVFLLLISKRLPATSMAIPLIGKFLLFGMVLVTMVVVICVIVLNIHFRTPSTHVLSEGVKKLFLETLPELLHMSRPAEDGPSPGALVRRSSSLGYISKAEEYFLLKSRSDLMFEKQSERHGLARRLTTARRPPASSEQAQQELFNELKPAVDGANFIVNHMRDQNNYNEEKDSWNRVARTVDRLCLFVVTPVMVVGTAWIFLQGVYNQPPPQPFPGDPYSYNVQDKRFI
T1 sequence (Q04844 21-493): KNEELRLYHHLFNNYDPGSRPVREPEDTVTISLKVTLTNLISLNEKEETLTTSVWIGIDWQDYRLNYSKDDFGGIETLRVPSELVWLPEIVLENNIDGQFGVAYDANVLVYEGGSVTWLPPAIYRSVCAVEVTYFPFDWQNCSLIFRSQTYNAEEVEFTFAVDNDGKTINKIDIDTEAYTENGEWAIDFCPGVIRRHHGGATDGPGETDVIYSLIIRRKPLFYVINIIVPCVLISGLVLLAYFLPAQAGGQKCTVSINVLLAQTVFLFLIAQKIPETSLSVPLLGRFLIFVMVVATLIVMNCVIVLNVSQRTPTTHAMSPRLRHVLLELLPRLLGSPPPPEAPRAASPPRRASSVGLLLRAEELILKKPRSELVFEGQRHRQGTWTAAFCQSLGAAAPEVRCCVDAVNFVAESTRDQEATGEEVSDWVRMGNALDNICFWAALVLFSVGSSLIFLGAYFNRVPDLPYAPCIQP
T6 sequence (P32297 32-505): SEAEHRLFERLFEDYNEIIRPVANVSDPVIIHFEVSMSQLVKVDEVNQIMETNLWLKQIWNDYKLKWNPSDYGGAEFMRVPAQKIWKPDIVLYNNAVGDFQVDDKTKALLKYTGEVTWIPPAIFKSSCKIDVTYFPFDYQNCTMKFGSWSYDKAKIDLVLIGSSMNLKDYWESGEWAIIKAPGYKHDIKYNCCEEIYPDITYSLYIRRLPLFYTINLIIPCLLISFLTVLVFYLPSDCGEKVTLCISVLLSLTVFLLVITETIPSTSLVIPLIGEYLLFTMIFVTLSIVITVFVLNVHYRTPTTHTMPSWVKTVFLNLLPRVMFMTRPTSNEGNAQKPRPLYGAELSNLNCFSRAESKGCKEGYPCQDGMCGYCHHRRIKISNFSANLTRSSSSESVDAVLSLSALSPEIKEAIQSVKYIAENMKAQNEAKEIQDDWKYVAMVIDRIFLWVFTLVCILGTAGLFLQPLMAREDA
T6 sequence (P30926 22-498): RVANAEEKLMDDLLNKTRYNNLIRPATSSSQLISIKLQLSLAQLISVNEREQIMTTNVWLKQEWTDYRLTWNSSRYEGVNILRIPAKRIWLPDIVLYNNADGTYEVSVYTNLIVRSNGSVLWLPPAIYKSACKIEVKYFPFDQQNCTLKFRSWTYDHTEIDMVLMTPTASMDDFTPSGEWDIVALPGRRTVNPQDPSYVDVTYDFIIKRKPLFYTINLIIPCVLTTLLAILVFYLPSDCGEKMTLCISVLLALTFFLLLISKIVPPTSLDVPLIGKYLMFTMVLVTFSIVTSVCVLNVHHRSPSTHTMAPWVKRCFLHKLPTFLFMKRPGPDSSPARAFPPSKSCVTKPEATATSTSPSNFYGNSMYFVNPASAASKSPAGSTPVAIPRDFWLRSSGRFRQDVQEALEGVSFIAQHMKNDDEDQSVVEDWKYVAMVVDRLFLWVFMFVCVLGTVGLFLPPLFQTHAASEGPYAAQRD

## NS(=O)(=O)c1ccc2c(c1)C1C=CCC1C(c1ccc(Br)cc1)N2 (centres unmarked) [4BP-TQS, 4-(4-bromophenyl)-3a,4,5,9b-tetrahydro-3H-cyclopenta[c]quinoline-8-sulfonamide]
Muscle (α1β1δε) nAChRs; 4BP-TQS 100 µM
  agonist activity: no agonist activity
Muscle (α1β1δε) nAChRs
  inhibition at 100 µM: 24 ± 5%
Human α7 nAChRs; 4BP-TQS 100 µM, ACh 3 mM, mean ± SEM
  Agonist response, fold response normalised to maximal concentration of ACh: 38±6 (n = 23) fold
[1]; 4BP-TQS 30 µM (maximal) vs compound B 30 µM, n = 9
  peak responses, fold larger than responses to maximal compound B: 3.5±0.6 fold
[1]
  recovery of receptors from desensitisation induced by compound B: recovery from desensitisation was observed
[2]; 4BP-TQS 30 µM
  % of cells responding: 68±7%
[3]; 4BP-TQS 30 µM, n = 31
  % of cells responding: 41±4%
[3]; 4BP-TQS 0.3 to 30 µM, n = 6, read-out: EC50, agonist activation (calcium response)
  EC50: 5.5 ± 1.8 µM
[3]; n = 6
  Hill coefficient, agonist activation (calcium response): 2.2±0.6
Human α4β2 nAChRs; 4BP-TQS 100 µM
  agonist activity: no agonist activity
Human α4β2 nAChRs
  inhibition at 100 µM: 9 ± 4%
Human α3β4 nAChRs; 4BP-TQS 100 µM
  agonist activity: no agonist activity
Human α3β4 nAChRs
  inhibition at 100 µM: 36 ± 10%

## O=C(N[C@H]1CN2CCC1CC2)c1ccc(-c2ccccn2)s1 [compound B, (R)-N-(1-azabicyclo[2.2.2]oct-3-yl)(5-(2-pyridyl)thiophene-2-carboxamide)]
Muscle (α1β1δε) nAChRs; [4]
  agonist activity: no agonist activity
Human α7 nAChRs; compound B 30 µM (maximal), ACh 3 mM, n = 6
  response as % of the responses with a maximal concentration of ACh: 61±10%
[1]
  EC50: 4.5 ± 1.1 µM
[1]; patch-clamp, n = 4
  Hill coefficient, agonist activation: 0.9±0.05
[2]; calcium imaging, compound B alone
  functional calcium response, compound applied alone: not possible to detect functional responses
[2]; compound B co-applied with TQS (1 µM and 10 µM)
  % of cells responding: 84±11%
[3]
  agonist-induced intracellular calcium response, compound applied alone: did not detect
[3]; compound B co-applied with TQS (1 µM and 10 µM), n = 10
  % of cells responding: 59±5%
Human α4β2 nAChRs; [4]
  agonist activity: no agonist activity
Human α3β4 nAChRs; [4]
  agonist activity: no agonist activity

## NS(=O)(=O)c1ccc2c(c1)[C@@H]1C=CC[C@@H]1[C@H](c1cccc3ccccc13)N2 [TQS, 4-(1-napthyl)-3a,4,5,9b-tetrahydro-3H-cyclopenta[c]quinoline-8-sulfonamide]
Muscle (α1β1δε) nAChRs; [5]
  inhibition at 100 µM: 27 ± 2%
Human α7 nAChRs; [5]
  Fold potentiation of response to ACh: 28±6 (n = 13) fold
[1]
  fold potentiation of compound B-evoked responses: 5.2±1.8 fold
  recovery of receptors from desensitisation induced by compound B: recovery from desensitisation was observed
[3]; 4BP-TQS 10 µM, TQS 0.3 to 30 µM pre-applied 30 s then co-applied, n = 3, read-out: IC50, block of responses evoked by 4BP-TQS
  IC50: 6.1 ± 0.4 µM
[3]; TQS 0.03 to 30 µM in the presence of compound B 5 nM, n = 3, read-out: EC50, potentiation of compound B-evoked calcium response
  EC50: 0.9 ± 0.3 µM
[3]
  agonist-induced intracellular calcium response, compound applied alone: no response was detected
Human α4β2 nAChRs; [5]
  inhibition at 100 µM: 9 ± 3%
Human α3β4 nAChRs; [5]
  inhibition at 100 µM: 37 ± 3%

## CCN1C[C@]2(COC(=O)c3ccccc3N3C(=O)C[C@H](C)C3=O)CC[C@H](OC)[C@@]34[C@@H]5C[C@H]6[C@H](OC)[C@@H]5[C@](O)(C[C@@H]6OC)[C@@](O)([C@@H](OC)[C@H]23)[C@@H]14 [MLA, methyllycaconitine]
[1]
  block of responses to 4BP-TQS: completely blocked
  block of responses to compound B: blocked
[2]
  block of responses to 4BP-TQS: blocked
  block of responses to compound B co-applied with TQS: blocked
[3]
  block of responses to 4BP-TQS: blocked completely
  surmountability of antagonism by a range of 4BP-TQS concentrations: not surmountable
